# Data published in patent US20250361230A1, “LATS Inhibitors and Uses Thereof” (The USA, as Represented by the Secretary, Dept. of Heath …, priority 2022, published 2025).
# What was measured:
# Assay type in all cases: biochemical
# [1] = biological target: AKT (Homo sapiens, UniProt P31749); assay: RBC HotSpot kinase assay (33P-ATP, P81 filter-binding), AKT; conditions: Table 28, biochemical kinase assay; read-out: AKT IC50
# Protocol: (§1) Biochemical kinase inhibitory data was obtained for various exemplary compounds prepared according to the above.
# (§2) The reagents used are as follows: Base Reaction buffer; 20 mM Hepes (pH 7.5), 10 mM MgCl2, 1 mM EGTA, 0.01% Brij35, 0.02 mg/ml BSA, 0.1 mM Na3VO4, 2 mM DTT, […]. Required cofactors were added individually to each kinase reaction.
# (§3) The reaction procedure was as follows: • 1) Substrates were prepared in freshly prepared Reaction Buffer. • 2) Any required cofactors were delivered to the substrate solution above. • 3) Kinase was delivered into the substrate solution and gently mixed. • 4) Compounds were delivered in 100% DMSO into the kinase reaction mixture by Acoustic technology (Echo550; nanoliter range), followed by incubation for 20 min at room temp. • 5) ^33P-ATP was delivered into the reaction mixture to initiate the reaction. • 6) The mixture was incubated for 2 hours at room temperature. • 7) Kinase activity was detected by P81 filter-binding method.
# (§4) Using the above functional assay, the inhibitory activity of the compounds for LATS1/2 versus AKT was characterized. The assays were typically run in a 10-point curve, in singlet, to produce a titration curve from which an IC50 value was obtained.
# (§5) The reagents used are as follows: Base Reaction buffer; 20 mM Hepes (pH 7.5), 10 mM MgCl2, 1 mM EGTA, 0.01% Brij35, 0.02 mg/ml BSA, 0.1 mM Na3VO4, 2 mM DTT, 1% DMSO. Required cofactors were added individually to each kinase reaction.
# (§6) Biochemical kinase inhibitory data was obtained for various exemplary compounds prepared according to the above in accordance with the protocols described in Examples 4 and 8. All biological activities are IC50, in nM.
# [2] = biological target: T1, LATS2 (Homo sapiens, UniProt Q9NRM7); assay: RBC HotSpot kinase assay (33P-ATP, P81 filter-binding), LATS2; conditions: Table 28, biochemical kinase assay; read-out: LATS2 IC50
# T1 sequence (Q9NRM7 1-1088): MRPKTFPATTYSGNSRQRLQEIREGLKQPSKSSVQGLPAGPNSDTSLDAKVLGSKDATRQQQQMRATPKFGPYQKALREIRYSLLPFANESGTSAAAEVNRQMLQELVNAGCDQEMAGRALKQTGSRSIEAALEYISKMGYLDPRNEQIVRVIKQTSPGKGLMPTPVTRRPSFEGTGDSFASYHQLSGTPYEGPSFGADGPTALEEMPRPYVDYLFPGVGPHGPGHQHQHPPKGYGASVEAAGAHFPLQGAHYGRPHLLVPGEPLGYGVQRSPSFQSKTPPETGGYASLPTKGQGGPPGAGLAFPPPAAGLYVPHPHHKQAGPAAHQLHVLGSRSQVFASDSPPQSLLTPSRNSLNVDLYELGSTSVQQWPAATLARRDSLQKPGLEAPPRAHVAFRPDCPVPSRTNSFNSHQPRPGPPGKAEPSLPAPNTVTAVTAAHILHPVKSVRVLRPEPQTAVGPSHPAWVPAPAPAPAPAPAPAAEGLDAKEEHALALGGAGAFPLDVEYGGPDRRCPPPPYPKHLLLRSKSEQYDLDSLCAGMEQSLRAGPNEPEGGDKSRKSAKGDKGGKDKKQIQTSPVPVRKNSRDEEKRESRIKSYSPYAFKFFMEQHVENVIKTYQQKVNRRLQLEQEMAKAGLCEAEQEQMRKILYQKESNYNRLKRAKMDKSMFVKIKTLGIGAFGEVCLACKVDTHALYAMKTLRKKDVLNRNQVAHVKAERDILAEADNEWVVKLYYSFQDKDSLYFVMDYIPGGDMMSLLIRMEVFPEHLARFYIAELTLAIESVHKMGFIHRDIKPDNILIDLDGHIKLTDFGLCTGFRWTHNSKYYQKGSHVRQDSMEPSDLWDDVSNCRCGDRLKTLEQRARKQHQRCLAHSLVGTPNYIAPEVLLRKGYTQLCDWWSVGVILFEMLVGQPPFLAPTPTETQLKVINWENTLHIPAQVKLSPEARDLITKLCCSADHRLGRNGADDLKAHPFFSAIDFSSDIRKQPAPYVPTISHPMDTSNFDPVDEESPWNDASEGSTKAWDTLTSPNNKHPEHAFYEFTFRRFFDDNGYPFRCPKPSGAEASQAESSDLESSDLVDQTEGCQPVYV
# Protocol: as §1, §2, §3, §4, §5, §6
# [3] = biological target: T2, LATS1 (Homo sapiens, UniProt O95835); assay: RBC HotSpot kinase assay (33P-ATP, P81 filter-binding), LATS1; conditions: Table 28, biochemical kinase assay; read-out: LATS1 IC50
# T2 sequence (O95835 1-1130): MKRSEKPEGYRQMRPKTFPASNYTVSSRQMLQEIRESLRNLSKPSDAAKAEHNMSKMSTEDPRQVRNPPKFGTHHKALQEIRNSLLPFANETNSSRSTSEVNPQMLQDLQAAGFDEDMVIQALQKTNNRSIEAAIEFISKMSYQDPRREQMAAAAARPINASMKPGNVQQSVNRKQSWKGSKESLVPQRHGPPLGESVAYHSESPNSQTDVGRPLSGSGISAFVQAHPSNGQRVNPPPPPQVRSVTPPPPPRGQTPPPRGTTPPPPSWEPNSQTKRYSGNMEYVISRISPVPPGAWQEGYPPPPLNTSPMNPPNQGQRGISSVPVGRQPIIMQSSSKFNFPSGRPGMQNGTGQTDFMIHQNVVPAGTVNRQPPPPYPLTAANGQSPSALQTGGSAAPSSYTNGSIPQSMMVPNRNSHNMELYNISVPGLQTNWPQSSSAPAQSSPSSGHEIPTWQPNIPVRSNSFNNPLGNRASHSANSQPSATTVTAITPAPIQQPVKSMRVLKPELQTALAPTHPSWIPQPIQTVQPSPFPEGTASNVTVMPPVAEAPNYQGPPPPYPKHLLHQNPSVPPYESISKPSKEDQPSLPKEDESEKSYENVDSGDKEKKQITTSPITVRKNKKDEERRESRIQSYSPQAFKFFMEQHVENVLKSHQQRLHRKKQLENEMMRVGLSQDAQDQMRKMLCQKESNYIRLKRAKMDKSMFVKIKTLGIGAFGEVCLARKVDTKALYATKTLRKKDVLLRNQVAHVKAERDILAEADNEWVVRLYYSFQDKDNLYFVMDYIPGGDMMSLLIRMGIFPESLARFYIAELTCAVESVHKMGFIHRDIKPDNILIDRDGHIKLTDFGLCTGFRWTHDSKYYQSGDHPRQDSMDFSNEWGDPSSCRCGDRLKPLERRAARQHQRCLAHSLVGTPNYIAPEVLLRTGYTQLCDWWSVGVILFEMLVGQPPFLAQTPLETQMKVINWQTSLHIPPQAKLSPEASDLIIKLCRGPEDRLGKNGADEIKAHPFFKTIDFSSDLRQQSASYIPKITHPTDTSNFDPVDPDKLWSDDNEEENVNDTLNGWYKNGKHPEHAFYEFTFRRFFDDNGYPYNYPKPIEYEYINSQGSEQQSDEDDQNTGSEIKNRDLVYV
# Protocol: as §1, §2, §3, §4, §5, §6
# AKT, sequence (P31749 whole entry): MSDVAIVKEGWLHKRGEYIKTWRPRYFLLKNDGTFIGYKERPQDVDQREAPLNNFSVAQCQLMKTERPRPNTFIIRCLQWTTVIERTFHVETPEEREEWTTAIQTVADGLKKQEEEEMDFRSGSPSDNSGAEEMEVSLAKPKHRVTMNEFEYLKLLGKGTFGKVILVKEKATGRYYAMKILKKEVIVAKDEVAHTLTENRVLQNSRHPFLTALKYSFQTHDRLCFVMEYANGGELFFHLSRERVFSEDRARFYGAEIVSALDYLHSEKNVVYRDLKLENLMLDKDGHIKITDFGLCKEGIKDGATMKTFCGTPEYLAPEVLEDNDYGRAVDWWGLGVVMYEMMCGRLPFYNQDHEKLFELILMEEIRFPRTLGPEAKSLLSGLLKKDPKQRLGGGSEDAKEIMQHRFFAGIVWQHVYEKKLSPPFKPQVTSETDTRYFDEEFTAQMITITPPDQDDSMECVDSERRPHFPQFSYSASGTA
Compound,IC50 [1] [µM],IC50 [2] [µM],IC50 [3] [µM]
"Cc1cc(-c2ccnc3[nH]cc(F)c23)cc(F)c1C1(O)[C@H](C)CN(C2CCOCC2)C[C@@H]1C (stereo partly drawn) [Compound 33, (3S,5R)-4-(2-fluoro-4-(3-fluoro-1H-pyrrolo[2,3-b]pyridin-4-yl)-6-methylphenyl)-3,5-dimethyl-1-(tetrahydro-2H-pyran-4-yl)piperidin-4-ol]",0.474,0.0019,0.0034
"Cc1cc(-c2ccnc3[nH]cc(F)c23)cc(F)c1C1(O)[C@H](C)CN(C2CCOC2)C[C@@H]1C (stereo partly drawn) [Compound 34, (3S,5R)-4-(2-fluoro-4-(3-fluoro-1H-pyrrolo[2,3-b]pyridin-4-yl)-6-methylphenyl)-3,5-dimethyl-1-(tetrahydrofuran-3-yl)piperidin-4-ol]",0.908,0.0083,0.0143
"C[C@@H]1CN(C2CCS(=O)(=O)CC2)C[C@H](C)C1(O)c1cnc(-c2ccnc3[nH]cc(F)c23)cc1F (stereo partly drawn) [Compound 35, 4-((3S,5R)-4-(4-fluoro-6-(3-fluoro-1H-pyrrolo[2,3-b]pyridin-4-yl)pyridin-3-yl)-4-hydroxy-3,5-dimethylpiperidin-1-yl)tetrahydro-2H-thiopyran 1,1-dioxide]",2.08,0.0634,0.0994
"C[C@@H]1CN(C2COC2)C[C@H](C)C1(O)c1cnc(-c2ccnc3[nH]cc(F)c23)cc1F (stereo partly drawn) [Compound 36, (3S,5R)-4-(4-fluoro-6-(3-fluoro-1H-pyrrolo[2,3-b]pyridin-4-yl)pyridin-3-yl)-3,5-dimethyl-1-(oxetan-3-yl)piperidin-4-ol]",> 1,0.0796,0.0985
"C[C@@H]1CN(C)C[C@H](C)[C@@]1(O)c1c(F)cc(-c2ccnc3[nH]cc(F)c23)cc1F [Compound 37, (3S,4s,5R)-4-(2,6-difluoro-4-(3-fluoro-1H-pyrrolo[2,3-b]pyridin-4-yl)phenyl)-1,3,5-trimethylpiperidin-4-ol]",0.477,0.0086,0.0101
"C[C@@H]1CN(C)C[C@H](C)[C@@]1(O)c1ccc(-c2ccnc3[nH]ccc23)nc1 [Compound 40, (3R,4s,5S)-4-(6-(1H-pyrrolo[2,3-b]pyridin-4-yl)pyridin-3-yl)-1,3,5-trimethylpiperidin-4-ol]",1.54,0.293,0.099
"Cc1cc(-c2ccnc3[nH]cc(F)c23)ncc1[C@@]1(O)[C@H](C)CN(C)C[C@@H]1C [Compound 44, (3R,4s,5S)-4-(6-(3-fluoro-1H-pyrrolo[2,3-b]pyridin-4-yl)-4-methylpyridin-3-yl)-1,3,5-trimethylpiperidin-4-ol]",1.61,0.0196,0.0089

# Compounds with a lower IC50 [1], results first:
IC50 [1] [µM],IC50 [2] [µM],IC50 [3] [µM],Compound
0.449,0.0112,0.0047,"CC(C)N1C[C@@H](C)[C@](O)(c2c(F)cc(-c3ccnc4[nH]cc(F)c34)cc2F)[C@@H](C)C1 [Compound 47, (3R,4s,5S)-4-(2,6-difluoro-4-(3-fluoro-1H-pyrrolo[2,3-b]pyridin-4-yl)phenyl)-1-isopropyl-3,5-dimethylpiperidin-4-ol]"
0.181,0.027,0.028,"C[C@@H]1CN(C)C[C@H](C)[C@@]1(O)c1ccc(-c2ccnc3[nH]ccc23)cc1 [Compound 38, (3R,4s,5S)-4-(4-(1H-pyrrolo[2,3-b]pyridin-4-yl)phenyl)-1,3,5-trimethylpiperidin-4-ol]"
0.159,0.0067,0.0097,"C[C@@H]1CN(C)C[C@H](C)[C@@]1(O)c1ccc(-c2ccnc3[nH]cc(F)c23)cc1F [Compound 42, (3R,4s,5S)-4-(2-fluoro-4-(3-fluoro-1H-pyrrolo[2,3-b]pyridin-4-yl)phenyl)-1,3,5-trimethylpiperidin-4-ol]"
0.0635,0.0029,0.0032,"Cc1cc(-c2ccnc3[nH]cc(F)c23)ccc1[C@@]1(O)[C@H](C)CN(C)C[C@@H]1C [Compound 43, (3R,4s,5S)-4-(4-(3-fluoro-1H-pyrrolo[2,3-b]pyridin-4-yl)-2-methylphenyl)-1,3,5-trimethylpiperidin-4-ol]"
